Assay results as given in article PMC8840664, “Design, Synthesis, Spectroscopic Characterisation and In Vitro Cytostatic Evaluation of Novel Bis(coumarin-1,2,3-triazolyl)benzenes and Hybrid Coumarin-1,2,3-triazolyl-aryl Derivatives” (Molecules, 2022).

Legend:
HCT116 (colon carcinoma) = experiment: in vitro antiproliferative activity, MTT assay, HCT116; format: cell-based; settings: Homo sapiens, HCT-116, concentration that causes 50% growth inhibition, 72 h
Procedure: (§1) The experiments were carried out on several human cell lines, as follows: HCT116 (colon carcinoma), H 460 (lung carcinoma) and MCF-7 (breast carcinoma), HeLa (cervical carcinoma), human T-lymphocyte cells (CEM) and HMEC-1 (dermal microvascular endothelial cell) according to the previously published experimental procedure. Briefly, the cells were grown in DMEM medium with the addition of 10% foetal bovine serum (FBS), 2 mM L-glutamine, 100 U/mL penicillin and 100 µg/mL streptomycin, and cultured as monolayers at 37 °C in a humidified atmosphere with 5% CO2. HCT116, H 460 and MCF-7 cells were seeded at 2 × 10^3 cells/well in a standard 96-well microtiter plates and left to attach for 24 h. Next day, test compound was added in five serial 10-fold dilutions. The cell growth rate was evaluated after 72 h of incubation, using MTT assay. Obtained results were expressed as IC50 value which stands for the concentration of the compound necessary for 50% of growth inhibition. The IC50 values were calculated from concentration-response curve using linear regression analysis by fitting the test concentrations that give percentage of growth (PG) values above and below the reference value (i.e., 50%). However, if for a given cell line all of the tested concentrations produce PGs exceeding the respective reference level of effect (e.g., PG value of 50), then the highest tested concentration is assigned as the default value, which is preceded by a “>” sign. Each test was performed in quadruplicate in at least two individual experiments.

MCF-7 (breast carcinoma) = experiment: in vitro antiproliferative activity, MTT assay, MCF-7; format: cell-based, human; settings: for IC50: Homo sapiens, MCF7, concentration that causes 50% growth inhibition, 72 h, MTT assay
Procedure: as §1

H 460 (lung carcinoma) = experiment: in vitro antiproliferative activity, MTT assay, H 460; format: cell-based; settings: Homo sapiens, NCI-H460, concentration that causes 50% growth inhibition, 72 h
Procedure: as §1

[1] = test system: human T-lymphocyte cells (CEM); experiment: cell proliferation, Coulter counter, CEM; format: cell-based; settings: 96 h, cells counted in a Coulter counter
Procedure: as §1
(§2) HeLa and HMEC-1 cells were seeded in 48-well plates at 10,000 cells/well. After 24 h, different concentrations of the compounds were added. After 3 days of incubation, the cells were trypsinized and counted in a Coulter counter. Suspension cells (human T-cell leukaemia Cem cells) were seeded in 96-well plates at 60,000 cells/well in the presence of different concentrations of compounds, allowed to proliferate for 96 h, and counted in a Coulter counter. The 50% inhibitory concentration (IC50) was defined as the compound concentration required reducing cell proliferation by 50%.

[2] = test system: HeLa (cervical carcinoma); experiment: cell proliferation, Coulter counter, HeLa; format: cell-based; settings: Homo sapiens, 72 h, 3 days, cells counted in a Coulter counter
Procedure: as §1, §2

[3] = test system: HMEC-1 (dermal microvascular endothelial cell); experiment: cell proliferation, Coulter counter, HMEC-1 (non-tumour); format: cell-based; settings: Homo sapiens, HMEC-1, 72 h; non-tumour cell line; 3 days, cells counted in a Coulter counter
Procedure: as §1, §2

Cc1cc(=O)oc2cc(-n3cc(-c4ccccc4)nn3)ccc12 [Compound 2a, 4-Methyl-7-(4-phenyl-1H-1,2,3-triazol-1-yl)-2H-chromen-2-one]
IC50 (HCT116 (colon carcinoma)): ≥ 100 µM | IC50 (MCF-7 (breast carcinoma)): 23 ± 9 µM | IC50 (H 460 (lung carcinoma)): ≥ 100 µM | IC50 [1]: > 100 µM | IC50 [2]: > 100 µM | IC50 [3]: > 100 µM | melting point: 267 to 270 °C

Cc1cc(=O)oc2cc(-n3cc(-c4ccc(N)cc4)nn3)ccc12 [Compound 2b, 7-[4-(4-Aminophenyl)-1H-1,2,3-triazol-1-yl]-4-methyl-2H-chromene-2-one]
IC50 (HCT116 (colon carcinoma)): 3 ± 2 µM | IC50 (MCF-7 (breast carcinoma)): 0.6 ± 0.1 µM | IC50 (H 460 (lung carcinoma)): ≥ 100 µM | IC50 [1]: > 100 µM | IC50 [2]: > 100 µM | IC50 [3]: > 100 µM | melting point: 269 to 273 °C

Cc1cc(=O)oc2cc(-n3cc(-c4ccc(N(C)C)cc4)nn3)ccc12 [Compound 2c, 7-[4-(4-(Dimethylamino)phenyl]-1H-1,2,3-triazol-1-yl)-4-methyl-2H-chromen-2-one]
IC50 (HCT116 (colon carcinoma)): ≥ 100 µM | IC50 (MCF-7 (breast carcinoma)): 21 ± 0.03 µM | IC50 (H 460 (lung carcinoma)): ≥ 100 µM | IC50 [1]: 58 ± 7 µM | IC50 [2]: 88 ± 8 µM | IC50 [3]: > 100 µM | melting point: 275 to 279 °C

Cc1ccc(-c2cn(-c3ccc4c(C)cc(=O)oc4c3)nn2)cc1 [Compound 2d, 4-Methyl-7-[4-(p-tolyl)-1H-1,2,3-triazol-1-yl]-2H-chromen-2-one]
IC50 (HCT116 (colon carcinoma)): 36 ± 3 µM | activity against MCF-7 cell line (in words) (MCF-7 (breast carcinoma)): devoid of activity | IC50 (MCF-7 (breast carcinoma)): ≥ 100 µM | IC50 (H 460 (lung carcinoma)): ≥ 100 µM | melting point: 269 to 272 °C

Cc1cc(=O)oc2cc(-n3cc(-c4ccc(Br)cc4)nn3)ccc12 [Compound 2e, 7-[4-(4-Bromophenyl)-1H-1,2,3-triazol-1-yl]-4-methyl-2H-chromen-2-one]
IC50 (HCT116 (colon carcinoma)): 27 ± 0.06 µM | IC50 (MCF-7 (breast carcinoma)): 32 ± 4 µM | IC50 (H 460 (lung carcinoma)): 85 ± 13.5 µM | melting point: 280 to 285 °C

COc1ccc(-c2cn(-c3ccc4c(C)cc(=O)oc4c3)nn2)cc1 [Compound 2f, 7-[4-(4-Methoxyphenyl)-1H-1,2,3-triazol-1-yl]-4-methyl-2H-chromen-2-one]
IC50 (HCT116 (colon carcinoma)): 22 ± 21 µM | activity against MCF-7 cell line (in words) (MCF-7 (breast carcinoma)): devoid of activity | IC50 (MCF-7 (breast carcinoma)): ≥ 100 µM | IC50 (H 460 (lung carcinoma)): ≥ 100 µM | melting point: 266 to 270 °C

Cc1cc(=O)oc2cc(-n3cc(-c4ccc(C=O)cc4)nn3)ccc12 [Compound 2g, 4-[1-(4-Methyl-2-oxo-2H-chromen-7-yl]-1H-1,2,3-triazol-4-yl)benzaldehyde]
IC50 (HCT116 (colon carcinoma)): 77 ± 7 µM | activity against MCF-7 cell line (in words) (MCF-7 (breast carcinoma)): devoid of activity | IC50 (MCF-7 (breast carcinoma)): ≥ 100 µM | IC50 (H 460 (lung carcinoma)): ≥ 100 µM | melting point: 282 to 287 °C

Cc1cc(=O)oc2cc(-n3cc(-c4cccc(-c5cn(-c6ccc7c(C)cc(=O)oc7c6)nn5)c4)nn3)ccc12 [Compound 2h, 7,7′-(4,4′-(1,3-Phenylene)bis(1H-1,2,3-triazole-4,1-diyl))bis(4-methyl-2H-chromen-2-one)]
IC50 (HCT116 (colon carcinoma)): 9 ± 3 µM | IC50 (MCF-7 (breast carcinoma)): 0.3 ± 0.2 µM | IC50 (H 460 (lung carcinoma)): 29 ± 3 µM | IC50 [1]: > 100 µM | IC50 [2]: > 100 µM | IC50 [3]: > 100 µM

Cc1cc(=O)oc2cc(-n3cc(-c4ccc(-c5cn(-c6ccc7c(C)cc(=O)oc7c6)nn5)cc4)nn3)ccc12 [Compound 2i, 7,7′-(4,4′-(1,4-Phenylene)bis(1H-1,2,3-triazole-4,1-diyl))bis(4-methyl-2H-chromen-2-one)]
IC50 (HCT116 (colon carcinoma)): 7 ± 3 µM | IC50 (MCF-7 (breast carcinoma)): 1 ± 0.1 µM | IC50 (H 460 (lung carcinoma)): ≥ 100 µM | IC50 [1]: > 100 µM | IC50 [2]: ≥ 100 µM | IC50 [3]: > 100 µM | melting point: 255 to 261 °C

Cc1cc(=O)oc2cc(-n3cc(CSc4nc5ccccc5s4)nn3)ccc12 [Compound 4a, 7-{{4-[(Benzo[d]thiazol-2-yl)thio]methyl}-1H-1,2,3-triazol-1-yl}-4-methyl-2H-chromen-2-one]
IC50 (HCT116 (colon carcinoma)): 31 ± 6 µM | IC50 (MCF-7 (breast carcinoma)): 3 ± 2 µM | IC50 (H 460 (lung carcinoma)): 21 ± 7 µM | IC50 [1]: ≥ 100 µM | IC50 [2]: 79 ± 36 µM | IC50 [3]: 66 ± 4 µM | melting point: 186 to 192 °C

Cc1cc(=O)oc2cc(-n3cc(CSc4nc5ccccc5[nH]4)nn3)ccc12 [Compound 4b, 7-{4-{[(1H-Benzo[d]imidazol-2-yl)thio]methyl}-1H-1,2,3-triazol-1-yl}-4-methyl-2H-chromen-2-one]
IC50 (HCT116 (colon carcinoma)): 31 ± 5 µM | IC50 (MCF-7 (breast carcinoma)): 19 ± 3 µM | IC50 (H 460 (lung carcinoma)): 23 ± 10 µM | IC50 [1]: 74 ± 37 µM | IC50 [2]: 25 µM | IC50 [3]: 69 ± 8 µM | melting point: 237 to 244 °C

O=c1[nH]cc(F)c(=O)[nH]1 [Compound 5-FU, 5-fluorouracil, reference compound]
IC50 (HCT116 (colon carcinoma)): 4 ± 1 µM | IC50 (MCF-7 (breast carcinoma)): 14 ± 0.3 µM | IC50 (H 460 (lung carcinoma)): 3 ± 0.3 µM

COc1cc([C@@H]2c3cc4c(cc3[C@@H](O[C@@H]3O[C@@H]5CO[C@@H](C)O[C@H]5[C@H](O)[C@H]3O)[C@H]3COC(=O)[C@H]23)OCO4)cc(OC)c1O [etoposide, reference compound]
IC50 (HCT116 (colon carcinoma)): 5 ± 2 µM | IC50 (MCF-7 (breast carcinoma)): 1 ± 0.7 µM | IC50 (H 460 (lung carcinoma)): 0.1 ± 0.04 µM
